Positions of bridges follow the written chain, without caps; N, C: chain ends. Residues, ends and D or L forms follow the SMILES beside them.

Results on seven molecules are retold here after article PMC7013932, “Disulfide-Linked Peptides for Blocking BTLA/HVEM Binding” (International Journal of Molecular Sciences, 2020).

One data set has as its target T1, BTLA protein (Homo sapiens, UniProt Q7Z6A9).
T1 construct: purchased Novoprotein C563
In words: SPR analysis of BTLA protein binding to immobilized HVEM (14–39) peptide. How it is done: To analyze the binding properties between BTLA and the HVEM (14–39) peptide, we performed the affinity measurements using SPR. Thus, the peptide extended by five glycine residues at the N-terminus and biotin was first immobilized on a streptavidin matrix-coated sensor chip. The BTLA protein was then injected at different concentrations (0, 1, 3, 5, 10, and 15 µM). […] Moreover, the SPR results reveal that the peptide binds approximately 8 times slower (k1 = 76400), and dissociates 36 times slower (k−1 = 0.00332) than does the HVEM protein (k1 = 620000 and k−1 = 0.12), which agrees with the theoretical results of simulations with crystal-based structure and NMR-based structure of the peptide (Table 1).
Figure 6 SPR analysis of the BTLA protein binding to the HVEM (14–39) peptide. Sensorgrams show the results of SPR analysis conducted on the binding of the indicated concentrations of BTLA protein (C = 0, 1, 3, 5, 10, and 15 μM) in HBS-EP buffer.
Recombinant human BTLA protein was purchased from Novoprotein (company product code: C563). Recombinant human BTLA-Fc, HVEM-Fc and anti-human BTLA (#7.1)-blocking mAb were a generous gift from Prof. D. Olive (Inserm U1068/CNRS U7258, Marseille, France). Anti-HVEM mAb was biotinylated according to the manufacturer’s instructions (Biotin Labeling Kit-NH2, Abnova, #KA0003).
Standard SPR analyses were performed using a Biacore T200 (GE Healthcare) instrument essentially as described in the manufacturer’s manual. BTLA protein binding was studied using the HVEM(14–39) peptide elongated by five glycine residues at the N-terminus and immobilized on a streptavidin matrix-coated Sensor Chip SA (GE Healthcare). The peptide was immobilized on the sensor surface to yield a final value of ~1100 RU. HBS-EP (150 mM NaCl, 10 mM HEPES pH 7.4, 3 mM EDTA, 0.05% Surfactant P20) was used as the running buffer. In all the experiments, the buffer flow was set to 30 µL/min, with all injections at a volume of 120 µL. The sensorchip surface was regenerated with 0.5 M NaCl and 10 mM glycine. The data obtained were analyzed using Biacore T200 Evaluation Software 3.1 (Biacore, GE Healthcare, USA). The results are presented as sensorgrams obtained after subtraction of the background response signal from control experiments with buffer injections.
In general terms: SPR reads the build-up and loss of mass on a sensor chip optically.

For data set [1], the system named is peripheral blood mononuclear cells (PBMC). The data set is classed as cell-based, human. Conditions: PBMC from 3 healthy donors; peptide 0.1 and 5 mg/ml; 6 and 24 h, 37 °C; trypan blue counting and DAPI flow cytometry. As to the method: (§1) Then, we measured the cell death by counting the cells using trypan blue and by flow cytometry using 4′,6-diamidino-2-phenylindole dihydrochloride (DAPI).
Blood samples were also collected from healthy volunteers through the local Swiss blood bank. Fresh peripheral blood mononuclear cells were purified by density gradient centrifugation (Isopaque-Ficoll) within 2 h after blood sampling. Cells were cryopreserved in RPMI medium 1640 supplemented with 40% FCS and 10% DMSO.
Then, 2 × 10^4 total PBMC per well (96-well plate) was cultured with or without the HVEM (14–39) peptide at 5 or 0.1 mg/mL in RPMI 1640 supplemented with 10% FCS, 1% penicillin-streptomycin, and 25 mM HEPES. After 6 and 24 h at 37 °C, cells were harvested counted with Trypan blue exclusion. Cells were then labeled with DAPI and analyzed by flow cytometry to determine the percentage of cell death. […]
medium at time points (from the bottom) = 0h, 2h, 3h, 6h and 24h (gradient 5-100%B in 60 […]
Figure S6. 293T cells expressing human BTLA were incubated with different concentrations (0.1, 1 and 5 mg/ml) of peptide HVEM(14-39) prior labeling with rhHVEM-Fc and AF647-conjugated anti-human IgG antibody.
Fig. S7. Cytotoxic assay. PBMC from 3 healthy donors were incubated with HVEM(14-39) peptide at 0, 0.1 and 5 mg/ml in culture medium for 6 and 24h. Cells were subsequently counted and labelled with a dead cell marker. […]
(In general: Flow cytometry measures light scatter and fluorescence of single cells or particles in a stream.)

In another data set the test system is 293T cells. In words: Toxicity on 293T cells (data not shown). Format: cell-based, human. Conditions: 5 mg/mL.
Source text: as §1

For data set [2], the target named is T2, BTLA/HVEM binding on 293T cells expressing human BTLA (Homo sapiens, UniProt Q7Z6A9).
T2 construct: Krummenacher, University of Pennsylvania; host or cells: 293T
In words: BTLA/HVEM interaction cell line assay (HVEM-Fc binding to 293T cells expressing BTLA, flow cytometry). The data set is classed as cell-based. Conditions: 293T cells expressing human BTLA preincubated with peptide 5 mg/mL, 1 h, 4 °C in PBS, then HVEM-Fc 8 μg/mL and AF647 anti-human IgG. As to the method:
Figure 7 HVEM (14–39) peptide blocks BTLA/HVEM binding. 293T cells expressing human BTLA were incubated with peptides (5 mg/mL) prior to labeling with HVEM-Fc and AF647-conjugated anti-human IgG antibody. The blocking capacity of the HVEM (14–39) peptide was first compared to (A) a scrambled (Ac-[…]-NH2) peptide or (B) to variant peptides (Table S2).
Cells (293T) expressing BTLA (a generous gift from Dr. C. Krummenacher, University of Pennsylvania, USA) were maintained in culture with RPMI 10% FCS supplemented with 0.2 mg/mL hygromycin B. The cells (2 × 10^5) were incubated with HVEM-Fc (at 8 μg/mL in PBS containing 0.5% BSA) for 30 min at 4 °C. The cells were then washed and incubated with goat anti-human Fc conjugated with AF647 for 20 min at 4 °C in PBS containing 0.5% BSA (Jackson ImmunoResearch, #109–606–170). Inhibition of BTLA/HVEM binding by different peptides was assessed after preincubating the cells with different concentrations of the peptide (5, 1, and 0.1 mg/mL) for 1 h at 4 °C in PBS. After washing in PBS, the cells were stained for 20 min at 4 °C with an amine reactive dye (aqua live/dead stain kit, from Life Technologies, L34957) for dead cell exclusion. BTLA expression was controlled by anti-BTLA APC-conjugated antibody (Biolegend, #344510). Maximum inhibition of binding was determined by adding anti-BTLA7.1 antibody (2 μg/mL) for 1 h at 4 °C, before adding HVEM-Fc. Sample acquisition was performed on a Gallios Flow Cytometer (Beckman Coulter), and data were analyzed using FlowJo Software (TreeStar).

In data set [3] the target is HVEM 1-103 (Homo sapiens) (UniProt Q92956). The data set is described as follows: SPR. Conditions: cited from earlier work.
For data set [4], the target named is T3, Recombinant human BTLA-Fc (human, UniProt Q7Z6A9 31-157).
T3 construct: also called BTLA-Fc protein; immobilized BTLA protein; source: gift from Prof; D. Olive (recombinant)
T3 sequence (looked up): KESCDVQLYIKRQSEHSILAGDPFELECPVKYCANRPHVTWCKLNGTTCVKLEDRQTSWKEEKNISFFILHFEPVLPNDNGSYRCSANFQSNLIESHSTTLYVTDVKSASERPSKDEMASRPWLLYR
In words: affinity chromatography on a microcolumn, fractions read by MALDI-TOF MS; BTLA-Fc immobilised in a microcolumn; peptide incubated, excess removed, complex dissociated; supernatant, last wash and elution analysed by mass spectrometry. Particulars: both partners purified.

The test system of a further data set is BTLA. Conditions: SPR, HVEM protein binding to BTLA; unit not given; cited from earlier work. From the text:
Table 1 Rate constants: k1, k−1 and KD for the BTLA/HVEM and BTLA/HVEM (14–39) complexes determined using SPR and molecular dynamics simulation. […] SPR provided more accurate data. […] KD and affinity are inversely related, which means that the lower the KD value, the higher the affinity of the molecules. The HVEM (14–39) peptide binds and d ...

T2 sequence (Q7Z6A9 31-289): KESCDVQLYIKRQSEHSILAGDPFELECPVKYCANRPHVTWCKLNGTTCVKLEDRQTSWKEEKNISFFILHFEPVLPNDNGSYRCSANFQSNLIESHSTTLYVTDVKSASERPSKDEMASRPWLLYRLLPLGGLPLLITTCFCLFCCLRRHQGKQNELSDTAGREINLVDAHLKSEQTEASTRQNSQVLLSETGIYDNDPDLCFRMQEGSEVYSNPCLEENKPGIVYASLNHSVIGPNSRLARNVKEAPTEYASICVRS
Chain of HVEM 1-103 (Homo sapiens) (Q92956 1-103): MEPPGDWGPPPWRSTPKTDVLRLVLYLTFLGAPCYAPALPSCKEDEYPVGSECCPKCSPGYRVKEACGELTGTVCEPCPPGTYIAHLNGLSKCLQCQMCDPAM

In general, Kd refers to a measure of binding affinity in units of concentration. In the case of `CC(=O)N[C@@H](CCC(=O)O)C(=O)N[C@@H](CO)C(=O)N[C@H]1CSSC[C@@H]2NC(=O)[C@H](C)NC(=O)[C@H](CCC(=O)O)NC(=O)[C@H](CCCCN)NC(=O)[C@H](C(C)C)NC(=O)[C@H](CCCNC(=N)N)NC(=O)[C@H](Cc3ccc(O)cc3)NC(=O)CNC(=O)[C@@H]3CCCN3C(=O)[C@H](CO)NC(=O)[C@H](CSSC[C@@H](C(=O)N[C@@H](CCC(=O)O)C(=O)N3CCC[C@H]3C(N)=O)NC(=O)[C@H](C(C)C)NC(=O)[C@H]([C@@H](C)O)NC(=O)CNC(=O)[C@H]([C@@H](C)O)NC(=O)[C@H](CC(C)C)NC(=O)[C@H](CCC(=O)O)NC(=O)CNC2=O)NC(=O)[C@H](CCCCN)NC(=O)[C@@H]2CCCN2C1=O` [HVEM (14–39)] (Ac-ESCPKCSPGYRVKEACGELTGTVCEP-NH2; disulfide 3-16, 6-24), the kon on BTLA protein (SPR Biacore T200, peptide extended by five Gly and biotin at N-terminus on streptavidin chip SA (~1100 RU), BTLA 0-15 µM, HBS-EP pH 7.4, mean of four measurements, read-out: k1, association rate constant) amounted to 76400 M⁻¹ s⁻¹. In addition, the Kd on BTLA protein (SPR, Table S1 measurement No 1) was found to be 13 nM; on BTLA protein (SPR, Table S1 measurement No 2), 149 nM; on BTLA protein (SPR, Table S1 measurement No 3), 217 nM; at BTLA protein (SPR, Table S1 measurement No 4), 30.6 nM; on BTLA protein (SPR, biotin-Gly5 peptide on streptavidin chip, BTLA 0-15 µM, HBS-EP pH 7.4, mean of four measurements), 102 nM. The koff on BTLA protein (SPR, biotin-Gly5 peptide on streptavidin chip, BTLA 0-15 µM, HBS-EP pH 7.4, mean of four measurements, read-out: k−1, dissociation rate constant) was determined as 0.00332 s⁻¹. In addition, the “cell death of PBMC” value in data set [1] is “did not find any significant increase in cell death”. The “toxicity on 293T cells” value in the data set on 293T cells is reported as “did not observe any toxicity”.
For the molecule `CC(=O)N[C@@H](CCC(=O)O)C(=O)N[C@@H](CO)C(=O)N[C@H]1CSSC[C@@H](C(=O)N[C@@H](CO)C(=O)N2CCC[C@H]2C(=O)NCC(=O)N[C@@H](Cc2ccc(O)cc2)C(=O)N[C@@H](CCCNC(=N)N)C(=O)N[C@H](C(=O)N[C@@H](CCCCN)C(=O)N[C@@H](CCC(=O)O)C(=O)N[C@@H](C)C(=O)N[C@H]2CSSC[C@@H](C(=O)N[C@@H](CCC(=O)O)C(=O)N3CCC[C@H]3C(N)=O)NC(=O)[C@H](C(C)C)NC(=O)[C@H]([C@@H](C)O)NC(=O)CNC(=O)[C@H]([C@@H](C)O)NC(=O)[C@H](CC(C)C)NC(=O)[C@H](CCC(=O)O)NC(=O)CNC2=O)C(C)C)NC(=O)[C@H](CCCCN)NC(=O)[C@@H]2CCCN2C1=O` [HVEM (14–39)^C16–C19, ^C29–C37] (Ac-ESCPKCSPGYRVKEACGELTGTVCEP-NH2; disulfide 3-6, 16-24), in data set [2], the “blocking of HVEM-Fc binding to BTLA (geometric fluorescence intensity, GMFI)” value (shortened to “blocking of HVEM-Fc binding to BTLA”) is on record as “slight decrease in the blocking capacity”.
Regarding `CC(=O)N[C@@H](CCC(=O)O)C(=O)N[C@@H](CO)C(=O)N[C@H]1CSSC[C@@H](C(=O)N[C@@H](CCC(=O)O)C(=O)N2CCC[C@H]2C(N)=O)NC(=O)[C@H](C(C)C)NC(=O)[C@H]([C@@H](C)O)NC(=O)CNC(=O)[C@H]([C@@H](C)O)NC(=O)[C@H](CC(C)C)NC(=O)[C@H](CCC(=O)O)NC(=O)CNC(=O)[C@@H]2CSSC[C@H](NC(=O)[C@H](CCCCN)NC(=O)[C@@H]3CCCN3C1=O)C(=O)N[C@@H](CO)C(=O)N1CCC[C@H]1C(=O)NCC(=O)N[C@@H](Cc1ccc(O)cc1)C(=O)N[C@@H](CCCNC(=N)N)C(=O)N[C@@H](C(C)C)C(=O)N[C@@H](CCCCN)C(=O)N[C@@H](CCC(=O)O)C(=O)N[C@@H](C)C(=O)N2` [HVEM (14–39)^C16–C37, ^C19–C29] (Ac-ESCPKCSPGYRVKEACGELTGTVCEP-NH2; disulfide 3-24, 6-16), the “blocking of HVEM-Fc binding to BTLA” value in data set [2] is given as “slight decrease in the blocking capacity”.
In the case of “Ac-ESSPKSSPGYRVKEASGELTGTVSEP-NH2 [HVEM (14–39)^C16,19,29,37S]”, in data set [2], the “blocking of HVEM-Fc binding to BTLA” value was “blocking capacity was completely lost”.
Consider BTLA (from UniProt Q7Z6A9), for which the Kd in data set [3] was 250 nM.

B1: HVEM (14–39) peptide (peptide, UniProt Q92956 52-77, looked up)
peptide: Ac-ESCPKCSPGYRVKEACGELTGTVCEP-NH2
modifications: disulfide 3-16, 6-24
notes: herpes virus entry mediator (HVEM), residues 14-39 of the numbering of the crystal structure PDB 2AW2, Cys15 replaced by serine; A C-terminal amide is likely (the scrambled peptide is printed as Ac-...-NH2); also called native HVEM (14–39) peptide; native peptide; source: synthetic peptide (solid-phase, Fmoc/tBu, RP-HPLC purified, disulfides formed stepwise)
Consider B1, for which the binding result in data set [4] was “binds”.

B2: HVEM: herpes virus entry mediator, transmembrane glycoprotein of the TNFR superfamily, ligand of BTLA (protein)
chain: LPSCKEDEYPVGSECCPKCSPGYRVKEACGELTGTVCEPCPPGTYIAHLNGLSKCLQCQMCDPAMGLRASRNCSRTENAVCGCSPGHFCIVQDGDHCAACRAYATSSPGQRVQKGGTESQDTLCQNCPPGTFSPNGTLEECQHQTKCSWLVTKAGAGTSSSHWV
modifications: left off: Fc (detected with anti-human Fc/IgG), end not stated, kept
notes: herpes virus entry mediator, transmembrane glycoprotein of the TNFR superfamily, ligand of BTLA
Regarding B2, the “k−1” value in the data set on BTLA is 0.12.
